{"source": "patent US11491245B2", "about": "“Gadolinium chelate compounds for use in magnetic resonance imaging” (BAYER PHARMA AKTIENGESELLSCHAFT, priority 2015, dated 2022)", "key": {"[1]": {"test": "Pharmacokinetic parameters in rats (blood plasma kinetic)", "format": "in vivo, male rats (Han-Wistar)", "settings": "male rats, 0.1 mmol Gd/kg bolus tail vein, mean", "protocol": "Pharmacokinetic parameters of the compound of Example 3 were determined in male rats (Han-Wistar, 220-230 g, n=3). The compound was administered as a sterile aqueous solution (52.5 mmol Gd/L) as a bolus in the tail vein of the animals. The dose was 0.1 mmol Gd/kg. Blood was sampled 1, 3, 5, 10, 15, 30, 60, 90, 120, 240, 360, 480 and 1440 min post injection and the Gd concentration was determined by Inductively Coupled Plasma Mass Spectroscopy (ICP-MS Agilent 7500a, Waldbronn, Germany). The blood level was converted to plasma concentrations by division by 0.625 (plasma fraction of rat blood, assuming strictly extracellular distribution). As a control, 3 animals were treated in the same way with Gadovist®, a low molecular weight contrast agent.\nThe fit of the obtained data to a three compartment model (Phoenix—WinNonlin) yielded the pharmacokinetic parameters which are shown in Table 3."}, "[2]": {"test": "Whole body imaging (dynamic MRI and tissue Gd concentration)", "format": "in vivo, male New Zealand white rabbits", "settings": "rabbits, tissues 30 min p.i., FIGS. 8A and 8B", "protocol": "The study was performed with a clinical whole body MRI equipped with body spine coil, abdomen flex coil, neck coil (1.5 T Magnetom Avanto, Siemens Healthcare, Erlangen, Germany). The study was done using male New Zealand white rabbits (weight 2.3-3.0 kg, n=8, Charles River Kisslegg). All animals were initially anesthetized using a body weight-adjusted intramuscular injection of a mixture (1+2) of xylazine hydrochloride (20 mg/mL, Rompun 2%, Bayer Vital GmbH, Leverkusen, Germany) and ketamine hydrochloride (100 mg/mL, Ketavet, Pfizer, Pharmacia GmbH, Berlin, Germany) using 1 mL/kg body weight. The continuous anesthesia of the intubated animals (endotracheal tube, Rueschelit Super Safe Clear, cuff 3.0 mm, Willy Ruesch AG, Kernen, Germany) was achieved by the intravenous injection of 0.9 mg propofol per kilogram per hour (10 mg/mL, Propofol-Lipuro 1%, B. Braun Melsungen AG, Melsungen, Germany). The continuous intravenous injection was performed using a MR infusion system (Continuum MR Infusion System, Medrad Europe B. V., A E Beek, Germany). The tracheal respiration (SV 900C, Maquet, Rastatt, Germany) was performed with 55% oxygen, forty breaths per minute and a breathing volume of 7 mL per kilogram body weight per minute.\nDynamic MRI measurements up to 22 min post injection with subsequent quantitative signal analysis (Siemens Mean Curve software (SYNGO Task Card, Siemens Healthcare, Erlangen, Germany), were performed for three different regions head and neck (brain, tongue, chops muscle, neck muscle), abdomen (spleen, liver, blood) and pelvis (extremity muscle). For the three different slice groups a 3D T1-weighted Vibe sequence was used (TR=4.74 ms, TE=2.38, flip=10°, 1:29 min). The dynamic measurements of the three slice groups (Head/Neck: 1:29 min, Abdomen: 0:49 min, Pelvis: 1:16 min) were done up to 22 min post injection: 1. Head/Neck: baseline, 1.4, 5.2, 8.9, 12.8, 16.5, 20.4 min, 2. Abdomen: baseline, 0.5, 4.3, 8.1, 11.9, 15.7, 19.5 min and 3. Pelvis: baseline, 2.9, 6.7, 10.5, 14.4, 18.1, 22.0 min. At 30 min post injection the animals were sacrificed and the Gd concentrations were measured using Inductively Coupled Plasma Mass Spectroscopy (ICP-MS Agilent 7500a, Waldbronn, Germany) in the following tissue samples: blood, brain, tongue, liver and extremity muscle. A quantitative image evaluation was performed for the 30 min time point p.i. due to the combination of the quantitative ICP-MS Gadolinium concentrations and the MRI region-of-interest analysis."}, "[3]": {"settings": "37° C., cited from earlier work"}, "[4]": {"test": "Gadolinium release after the addition of zinc and phosphate (transmetallation)", "settings": "phosphate buffer pH 7.00, 2.5 mmol/L gadolinium complex, 2.5 mmol/L ZnCl2, 37° C., up to 72 h, FIG. 2", "experimental": "The technique is based on measurement of the evolution of the water proton paramagnetic longitudinal relaxation rate in phosphate buffer (pH 7.00, 26 mmol/L, KH2PO4 Merck, Hessen, Germany) containing 2.5 mmol/L gadolinium complex and 2.5 mmol/L ZnCl2 Sigma-Aldrich, Munich, Germany). […] The mixture was vigorously stirred, and 300 μL were taken out for the relaxometric study at 0 min, 60 min, 120 min, 3 h, 4 h, 5 h, 24 h, 48 h and 72 h. The measurements were performed on a MiniSpec mq60 spectrometer (Bruker Analytik, Karlsruhe, Germany) at 60 MHz and 37° C."}}, "note": "Like-named read-outs stand apart in the source and are kept apart here."}
{"smiles": "O=C([O-])CN1CCN(CC(=O)[O-])CCN([C@H](CO)[C@H](O)CO)CCN(CC(=O)[O-])CC1.[Gd+3]", "note": "(racemic) [Reference compound 1, gadobutrol, reference compound]", "values": [{"measurement": "AUC∞ Area under the curve (to infinity)", "setting": "[1]", "value": 11500, "unit": "µmol·min/L"}, {"measurement": "MRT Mean residence time", "setting": "[1]", "value": 30.1, "unit": "min"}, {"measurement": "V1 + V2 Volume, compartments V1 + V2", "setting": "[1]", "value": 0.25, "unit": "L/kg"}, {"measurement": "V2 Volume, compartment V2", "setting": "[1]", "value": 0.12, "unit": "L/kg"}, {"measurement": "Vc (V1) Volume, central compartment V1", "setting": "[1]", "value": 0.14, "unit": "L/kg"}, {"measurement": "Vd,ss Volume of distribution at steady state", "setting": "[1]", "value": 0.28, "unit": "L/kg"}, {"measurement": "t½ α Half-life, compartment V1", "setting": "[1]; three compartment model", "value": 1.6, "unit": "min"}, {"measurement": "t½ β Half-life, compartment V2", "setting": "[1]; three compartment model", "value": 20.5, "unit": "min"}, {"measurement": "t½ γ Half-life, compartment V3", "setting": "[1]; three compartment model", "value": 232, "unit": "min"}, {"measurement": "slope of the linear regression between tissue gadolinium concentration and MRI signal change", "setting": "[2]", "value": 1.0}, {"measurement": "r1 human plasma", "setting": "[3]; reference compounds (marked ^), plasma, 3.0 T, average ± standard deviation", "value": "5.0 ± 0.3", "unit": "L/mmol/s"}, {"measurement": "r1 water", "setting": "[3]; reference compounds (marked ^), 3.0 T, average ± standard deviation", "value": "3.2 ± 0.3", "unit": "L/mmol/s"}, {"measurement": "r1 FBS", "setting": "[3]; reference compounds, bovine plasma, 1.5 T, from Rohrer et al.", "value": 5.2, "unit": "L/mmol/s"}, {"measurement": "r1 water", "setting": "[3]; reference compounds, 1.5 T, from Rohrer et al.", "value": 3.3, "unit": "L/mmol/s"}, {"measurement": "stability against transmetallation (relative longitudinal relaxation rate R1p(t)/R1p(0) versus time)", "setting": "[4]", "value": "high stability"}]}
